Results reported in article PMC4673972 (Bioinformatics, 2015).

Assays:
[1] = target: Bcl-2 (B-cell lymphoma 2) (Homo sapiens, UniProt P10415); assay: intrinsic tryptophan fluorescence quenching; assay type: binding
[2] = target: B-cell lymphoma 2 (Bcl-2) (UniProt P10415); assay: fluorescence polarisation
Sequence of B-cell lymphoma 2 (Bcl-2) (P10415 whole entry): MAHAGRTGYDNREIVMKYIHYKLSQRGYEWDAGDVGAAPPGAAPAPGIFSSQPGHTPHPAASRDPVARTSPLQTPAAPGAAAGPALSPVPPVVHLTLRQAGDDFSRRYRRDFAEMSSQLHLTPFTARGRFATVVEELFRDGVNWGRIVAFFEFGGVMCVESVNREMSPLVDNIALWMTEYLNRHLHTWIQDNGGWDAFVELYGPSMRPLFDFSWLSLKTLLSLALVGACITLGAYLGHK

Sequence of Bcl-2 (B-cell lymphoma 2) (P10415 whole entry): as above

Kd [1] | Kd [2] | Compound
380 ± 80 µM |  | CC(C)(COP(=O)(O)OP(=O)(O)OC[C@H]1O[C@@H](n2cnc3c(N)ncnc32)[C@H](O)[C@@H]1OP(=O)(O)O)[C@@H](O)C(=O)NCCC(=O)NCCS [CoA]
 | 0.128 µM | fluorescent-labeled Bax-BH3 peptide
